{"source": "patent US20070167526A1", "about": "“Topical mecamylamine formulations for ocular administration and uses thereof” (priority 2005, published 2007)", "key": {"[1]": {"settings": "cited from earlier work"}, "[2]": {"assay": "Distribution of mecamylamine into ocular tissue of rabbits following intravenous administration (Example 9)", "assay_type": "in vivo, New Zealand white rabbit", "settings": "rabbit; for concentration at 1 h / concentration at 2 h / concentration at 4 h / concentration at 6 h / concentration at 0 h / concentration at 0.5 h: male, iv; for concentration at 1 h / concentration at 2 h / concentration at 4 h / concentration at 6 h / concentration at 0 h / concentration at 0.5 h / Concentration of mecamylamine in the retina/choroid, Mean: 15 mg/kg; for Concentration of mecamylamine in the retina/choroid, Mean: hour 6, listed as MEC", "method": "Mecamylamine was administered intravenously to male New Zealand white rabbits (approximately 2.5-3 kg (Kralek Frams, Turlock, Calif.)) at a dose of 15 mg/kg (dissolved in sterile 0.9% NaCl for injection) over either over 60 minutes or 6 hours. Drug concentrations were measured as described previously at different time points in the plasma, the vitreous and at 6 hours in the retina-choroid tissue. For both groups, the vitreous(>0.1 mL) was withdrawn at 8 time points, with each animal being sampled no more than twice in total: pre-dose, 5 minutes, 15 minutes, 30 minutes, 1, 2, 4, and 6 hours. At all time points, only two vitreous samples were collected in order to minimize pain and damage to rabbit eyes, in compliance with IACUC guidelines. Plasma samples were also collected at the same 8 time points: pre-dose, 5 minutes, 15 minutes, 30 minutes, 1, 2, 4, and 6 hours, with duplicate samples collected at each time point. At 6 hours, the animals were sacrificed and the vitreous and retina-choroid tissue were collected from all animals. Clinical observations were recorded periodically throughout the study. Biological samples for this study were analyzed using an LC/MS/MS method (see Example 6) with a lower limit of quantitation of 0.5 ng/mL."}, "[3]": {"assay": "Ocular bioavailability following intravenous administration (Example 2)", "assay_type": "in vivo, New Zealand White rabbit", "settings": "rabbit; 15 mg/kg i.v.; FIG. 3", "from_the_text": "This study was designed to model the ocular bioavailability of mecamylamine when administered systemically. Rabbit eyes are the preferred model for in vivo modeling of ocular drugs, however, the rabbit is not the subject of choice for modeling oral bioavailability. However, systemic administration does emulate orally administered mecamylamine to a reasonable approximation since mecamylamine has rapid absorption and high oral bioavailability. Therefore, intravenous injection was used to model ocular bioavailability of mecamylamine administered systemically, in order to determine the deposition of mecamylamine to the plasma, vitreous and posterior tissues (retina/choroid) of the eye from the blood.\nThe study comprised 2 groups (each N=6, 12 rabbits total) of male NZW (New Zealand White) rabbits weighing approximately 2.5-3 kg and obtained from Kralek Farms (Turlock, Calif.). Mecamylamine solution, prepared as described in Example 1, at a dose of 15 mg/kg was delivered via i.v. infusion as either a short infusion (1 hr) or slow infusion (6 hr) in rabbits sedated by ketamine/xylazine, with the slow infusion intended to model controlled systemic release of the mecamylamine.\nFor both groups, samples of the vitreous(≧0.1 ml) and plasma were withdrawn at 6 time points: pre-dose, 30 min, 1, 2, 4, and 6 hr. At 6 hours, all animals were sacrificed and vitreous and retinal tissues were collected. The total amount of mecamylamine administered during each infusion was the same, based on the weight of the individual rabbit.\nThe concentrations of mecamylamine present in the various samples were analyzed as described in Example 6, below."}}, "note": "Read-outs that look alike come from different tables or passages of the source.", "data": [{"compound": "CNC1(C)C2CCC(C2)C1(C)C", "note": "(centres unmarked) [mecamylamine, N-2,3,3-tetramethylbicyclo(2.2.1)heptan-2-amine]", "values": [{"measurement": "pka", "setting": "[1]", "result": "~11.2"}, {"measurement": "concentration at 1 h", "setting": "[2]; New Zealand White, plasma, 15 mg/kg i.v. 1 hr infusion, hour 1, read-out: Concentration of mecamylamine in the plasma, Mean", "result": 1820, "unit": "ng/mL"}, {"measurement": "concentration at 2 h", "setting": "[2]; New Zealand White, plasma, 15 mg/kg i.v. 1 hr infusion, hour 2, read-out: Concentration of mecamylamine in the plasma, Mean", "result": 455, "unit": "ng/mL"}, {"measurement": "concentration at 4 h", "setting": "[2]; New Zealand White, plasma, 15 mg/kg i.v. 1 hr infusion, hour 4, read-out: Concentration of mecamylamine in the plasma, Mean", "result": 227, "unit": "ng/mL"}, {"measurement": "concentration at 6 h", "setting": "[2]; New Zealand White, plasma, 15 mg/kg i.v. 1 hr infusion, hour 6, read-out: Concentration of mecamylamine in the plasma, Mean", "result": 102, "unit": "ng/mL"}, {"measurement": "concentration at 1 h", "setting": "[2]; New Zealand White, plasma, 15 mg/kg i.v. 6 hr infusion, hour 1, read-out: Concentration of mecamylamine in the plasma, Mean", "result": 470, "unit": "ng/mL"}, {"measurement": "concentration at 2 h", "setting": "[2]; New Zealand White, plasma, 15 mg/kg i.v. 6 hr infusion, hour 2, read-out: Concentration of mecamylamine in the plasma, Mean", "result": 572, "unit": "ng/mL"}, {"measurement": "concentration at 4 h", "setting": "[2]; New Zealand White, plasma, 15 mg/kg i.v. 6 hr infusion, hour 4, read-out: Concentration of mecamylamine in the plasma, Mean", "result": 717, "unit": "ng/mL"}, {"measurement": "concentration at 6 h", "setting": "[2]; New Zealand White, plasma, 15 mg/kg i.v. 6 hr infusion, hour 6, read-out: Concentration of mecamylamine in the plasma, Mean", "result": 313, "unit": "ng/mL"}, {"measurement": "concentration at 6 h", "setting": "[2]; New Zealand White, retina/choroid, 15 mg/kg i.v. 1 hr infusion, hour 6, read-out: Concentration of mecamylamine in the retina/choroid, Mean", "result": 261, "unit": "ng/mL"}, {"measurement": "concentration at 6 h", "setting": "[2]; New Zealand White, retina/choroid, 15 mg/kg i.v. 6 hr infusion, hour 6, read-out: Concentration of mecamylamine in the retina/choroid, Mean", "result": 1530, "unit": "ng/mL"}, {"measurement": "concentration at 0 h", "setting": "[2]; New Zealand white, plasma, 15 mg/kg i.v. 1 hr infusion, hour 0, read-out: Concentration of mecamylamine in the plasma, Mean", "result": 48.7, "unit": "ng/mL"}, {"measurement": "concentration at 0.5 h", "setting": "[2]; New Zealand white, plasma, 15 mg/kg i.v. 1 hr infusion, hour 0.5, read-out: Concentration of mecamylamine in the plasma, Mean", "result": 5330, "unit": "ng/mL"}, {"measurement": "concentration at 0 h", "setting": "[2]; New Zealand white, plasma, 15 mg/kg i.v. 6 hr infusion, hour 0, read-out: Concentration of mecamylamine in the plasma, Mean", "result": 0, "unit": "ng/mL"}, {"measurement": "concentration at 0.5 h", "setting": "[2]; New Zealand white, plasma, 15 mg/kg i.v. 6 hr infusion, hour 0.5, read-out: Concentration of mecamylamine in the plasma, Mean", "result": 350, "unit": "ng/mL"}, {"measurement": "concentration at 0 h", "setting": "[2]; New Zealand white, vitreous humor, 15 mg/kg i.v. 1 hr infusion, hour 0, read-out: Concentration of mecamylamine in the vitreous humor, Mean", "result": 43, "unit": "ng/mL"}, {"measurement": "concentration at 0.5 h", "setting": "[2]; New Zealand white, vitreous humor, 15 mg/kg i.v. 1 hr infusion, hour 0.5, read-out: Concentration of mecamylamine in the vitreous humor, Mean", "result": 717, "unit": "ng/mL"}, {"measurement": "concentration at 1 h", "setting": "[2]; New Zealand white, vitreous humor, 15 mg/kg i.v. 1 hr infusion, hour 1, read-out: Concentration of mecamylamine in the vitreous humor, Mean", "result": 1110, "unit": "ng/mL"}, {"measurement": "concentration at 2 h", "setting": "[2]; New Zealand white, vitreous humor, 15 mg/kg i.v. 1 hr infusion, hour 2, read-out: Concentration of mecamylamine in the vitreous humor, Mean", "result": 900, "unit": "ng/mL"}, {"measurement": "concentration at 4 h", "setting": "[2]; New Zealand white, vitreous humor, 15 mg/kg i.v. 1 hr infusion, hour 4, read-out: Concentration of mecamylamine in the vitreous humor, Mean", "result": 430, "unit": "ng/mL"}, {"measurement": "concentration at 6 h", "setting": "[2]; New Zealand white, vitreous humor, 15 mg/kg i.v. 1 hr infusion, hour 6, read-out: Concentration of mecamylamine in the vitreous humor, Mean", "result": 174, "unit": "ng/mL"}, {"measurement": "concentration at 0 h", "setting": "[2]; New Zealand white, vitreous humor, 15 mg/kg i.v. 6 hr infusion, hour 0, read-out: Concentration of mecamylamine in the vitreous humor, Mean", "result": 5.6, "unit": "ng/mL"}, {"measurement": "concentration at 0.5 h", "setting": "[2]; New Zealand white, vitreous humor, 15 mg/kg i.v. 6 hr infusion, hour 0.5, read-out: Concentration of mecamylamine in the vitreous humor, Mean", "result": 59.9, "unit": "ng/mL"}, {"measurement": "concentration at 1 h", "setting": "[2]; New Zealand white, vitreous humor, 15 mg/kg i.v. 6 hr infusion, hour 1, read-out: Concentration of mecamylamine in the vitreous humor, Mean", "result": 138, "unit": "ng/mL"}, {"measurement": "concentration at 2 h", "setting": "[2]; New Zealand white, vitreous humor, 15 mg/kg i.v. 6 hr infusion, hour 2, read-out: Concentration of mecamylamine in the vitreous humor, Mean", "result": 223, "unit": "ng/mL"}, {"measurement": "concentration at 4 h", "setting": "[2]; New Zealand white, vitreous humor, 15 mg/kg i.v. 6 hr infusion, hour 4, read-out: Concentration of mecamylamine in the vitreous humor, Mean", "result": 408, "unit": "ng/mL"}, {"measurement": "concentration at 6 h", "setting": "[2]; New Zealand white, vitreous humor, 15 mg/kg i.v. 6 hr infusion, hour 6, read-out: Concentration of mecamylamine in the vitreous humor, Mean", "result": 458, "unit": "ng/mL"}, {"measurement": "Concentration of mecamylamine in the retina/choroid, Mean", "setting": "[2]; 15 mg/kg i.v. 1 hr infusion", "result": 260.8, "unit": "ng/mL"}, {"measurement": "Concentration of mecamylamine in the retina/choroid, Mean", "setting": "[2]; 15 mg/kg i.v. 6 hr infusion", "result": 1534.3, "unit": "ng/mL"}, {"measurement": "peak mean plasma concentration", "setting": "[2]; 15 mg/kg i.v. over longer period (6 hours)", "result": 717, "unit": "ng/mL"}, {"measurement": "time of peak plasma levels", "setting": "[2]; 15 mg/kg i.v. over shorter period", "result": "≤ 0.5", "unit": "h"}, {"measurement": "peak mean plasma concentration", "setting": "[2]; 15 mg/kg i.v. over shorter period (60 minutes)", "result": "5,331 ng/mL"}, {"measurement": "highest mean level in the vitreous", "setting": "[2]; longer infusion period, seen at 6 hours", "result": 458, "unit": "ng/mL"}, {"measurement": "highest mean level in the vitreous", "setting": "[2]; shorter infusion period, seen at 1 hour", "result": 1110, "unit": "ng/mL"}, {"measurement": "amount of mecamylamine reaching the retina/choroid, long infusion versus short infusion", "setting": "[3]", "result": "more than 2 fold"}]}]}
